Where two headings read alike, the source gives them in different places.
Key:
p65 = test: Immunocytochemistry, nuclear translocation of p65; type: cell-based, Rat; settings: Aβ25-35 for 1 h
PC12 cells [1] = test: Cell death induced by the NO releasing compound SNP (MTT); type: cell-based, Rat; settings: MTT reduction assay
Procedure: (§1) The MTT assay is a sensitive measurement of the normal metabolic status of cells, particularly that of mitochondria, which reflects early cellular redox changes. After incubation, cells were treated with the MTT solution (final concentration, 1 mg/ml) for 2 h. The dark blue formazan crystals formed in intact cells were dissolved in DMSO, and absorbance at 570 nm was measured with a microplate reader. Results were expressed as the percentage (%) of MTT reduction, assuming that the absorbance of control cells was 100%.

[2] = system: retinal neurons in the retinal ganglion cell layer; test: NMDA retinal model (intravitreal NMDA, cell counts in retinal wholemounts); type: in vivo, Sprague-Dawley rats
Procedure: Young adult female Sprague-Dawley rats were used in the present experiments. The animals were supplied by Harlan, England and maintained in the Comparative Biology Unit at Charing Cross Hospital Campus, Imperial College. Animal procedures used were in accordance to regulations of Home Office, UK. The animals were divided into four groups. The first group consists of 6 normal rats that received no treatment. A further 9 animals were anesthetized with. Hypnorm™ (0.02 mg of fentanyl citrate and 0.54 mg fluanisone/100 g body weight) and Hypnovel™ (0.27 mg midazolam/100 g body weight) before they received unilateral intravitreal injection of 5 μl of 4 mM NMDA to the vitreous body of the left eyes, with the uninjected right eyes served as controls. Six of the experimental animals injected with NMDA received an additional intraperitoneal injection of L-ergothioneine 0.2 ml of 70 mg/ml (n=3), or phosphate buffer saline (PBS) as vehicle control 24 h and 30 min before injection of NMDA.
Further intraperitoneal injection of L-ergothioneine, or PBS was performed at 1 h, 24 h, 48 h and 72 h time points, and 3 injections per week for another three weeks. Six weeks after injection of NMDA, all animals were anaesthetized deeply again and perfused with physiological saline followed by 4% paraformaldehyde in phosphate buffer (pH 7.4). The eyeballs were collected in the same fixative and post-fixed for another half an hour before the retinas were dissected out in PBS. For each retina, four radial cuts were made before the retinas were flatly mounted onto gelatin-coated slides, and air-dried slowly in a moist chamber for 2-3 days.
The retinal whole-mounts were then stained for cresyl violet and cover slipped. Analysis was performed under a Wild microscope equipped with a camera lucida drawing tube. The number of retinal neurons in the retinal ganglion cell layer was counted and cell sizes measured at a magnification of 300× and in an area of 150×150 μm in the central, intermediate and peripheral parts of the four retinal quadrants. The neurons counted were divided into two groups with somata smaller than 6 μm, or equal to or larger than 6 μm in diameter. The majority of larger neurons are retinal ganglion cells while smaller somata are primarily non-ganglion cells or displaced amacrine cells (Perry (1981) Neuroscience 6:931-944). The numbers of cells were: counted in a total of 12 fields of individual retinas an analyzed statistically. The data is expressed as mean±S.E.M. Differences between values were compared by one-way analysis of variance (ANOVA).

[3] = Sheep; cited from earlier work
[4] = Man; cited from earlier work
PC12 cells [5] = test: MTT dye reduction assay, Aβ25-35-induced cytotoxicity; type: cell-based, Rat; settings: 1 mM EGT, added 30 min prior to Aβ25-35; 36 h
Procedure: PC12 cells were maintained in DMEM supplemented with 10% heat-inactivated horse serum and 5% fetal bovine serum at 37° C. in a humidified atmosphere of 10% CO2/90% air. All cells were cultured in poly-D-lysine coated culture dishes. The medium was changed every other day, and cells were plated at an appropriate density according to each experimental scale. After 24 h subculture, cells were switched to serum-free N-2 defined medium for treatment. For determination of cell viability, PC12 cells were initially plated at a density of 4×10^4 cells/300 μl in 48-well plates, and the cell viability was determined by the conventional MTT reduction and the lactate dehydrogenase (LDH) release assay as described below.
as §1

[6] = Rabbit; cited from earlier work
PC12 cells [7] = test: Cell death induced by peroxynitrite generating SIN-1 (MTT); type: cell-based, Rat; settings: MTT reduction assay
Procedure: as §1

Bax and Bcl-XL = test: Western blot, levels of Bax and Bcl-XL; type: cell-based, Rat; settings: 25 μM Aβ25-35, 36 h
Procedure: After treatment, cells (1×10^7 cells/7 ml in 100φ dish) were collected and washed with PBS. After centrifugation, cell lysis was carried out at 4° C. by vigorous shaking for 15 min in RIPA buffer (150 mM NaCl, 1% NP-40, 0.5% sodium deoxycholate, 0.1% SDS, 50 mM Tris-HCl (pH 7.4), 50 mM glycerphosphate, 20 mM NaF, 20 mM EGTA, 1 mM DTT, 1 mM Na3VO4 and protease inhibitors). After centrifugation at 15,000 rpm for 15 min, supernatant was separated and stored at −70° C. until use. The protein concentration was determined by using the bicinchrinic acid (BCA) protein assay kit (Pierce, Rockford, Ill., USA). After addition of sample loading buffer, protein samples were electrophoresed on a 12.5% SDS-polyacrylamide gel. Proteins were transferred to polyvinylidene difluoride blots at 300 mA for 3 h. The blots were blocked for 1 h at room temperature in fresh blocking buffer (0.1% Tween-20 in Tris-buffered saline, pH 7.4 containing 5% non-fat dried milk). Dilutions (1:1000) of primary anti-poly(ADP-ribose)polymerase (PARP), anti-Bcl-XL and anti-Bax antibodies were made in PBS with 3% non-fat dry milk. Following three washes with PBST (PBS and 0.1% Tween-20), the blots were incubated with horseradish peroxidase-conjugated secondary antibodies in PBS with 3% non-fat dry milk for 1 h at room temperature. […]

PC12 cells [8] = test: Mitochondrial membrane potential (ΔΨm) by TMRE fluorescence; type: cell-based, Rat; settings: 25 μM Aβ25-35; pretreatment of EGT (0.5 mM, 1 mM)
Procedure: To measure the mitochondrial membrane potential (ΔΨm), the lipophilic cationic probe TMRE was used. After treatment with Aβ25-35 (25 μM) for 24 h in the presence or absence of EGT, cells (1×10^4 cells/1 ml in 4-well chamber) were rinsed with PBS, and TME (150 nM) was loaded. After 30 min incubation at 37° C., cells were examined under a confocal microscope (LEICA TCS SP).

[9] = NMDA-injected retina, L-ergothioneine i.p. 0.2 ml of 70 mg/ml, 6 weeks after NMDA
[10] = uninjected control eyes of L-ergothioneine treated animals

## C[N+](C)(C)[C@@H](Cc1c[nH]c(=S)[nH]1)C(=O)[O-] [L-ergothioneine, 2-mercaptohistidine trimethylbetaine]
p65
  Aβ25-35-induced nuclear translocation of p65: inhibitory effect
PC12 cells [1]
  cell death mediated by the NO donor SNP: failed to attenuate
[2]; NMDA retinal model, versus PBS
  neuroprotective effect: significant neuroprotective effect
[2]; [9]
  loss of ganglion cells: 44%
  loss of small or non-ganglion cells: 31%
[2]; [10]
  loss of ganglion cells: 7%
  loss of non-ganglion cells: 4%
[3]
  L-Ergothioneine Concentration (mg/100 ml blood): 2-6 mg/100 ml blood
[4]
  L-Ergothioneine Concentration (mg/100 ml blood): 1-4 mg/100 ml blood
PC12 cells [5]
  cytotoxic effect of Aβ25-35 (MTT reduction): inhibited
[6]
  L-Ergothioneine Concentration (mg/100 ml blood): 1-10 mg/100 ml blood
PC12 cells [7]
  cytotoxicity induced by the peroxynitrite releasing compound SIN-1: selectively protected
Bax and Bcl-XL
  ratio of Bax to Bcl-XL: substantially reduced
PC12 cells [8]
  Aβ25-35-induced dissipation of ΔΨm: significantly blocked
